Laboratory results reported in ChEMBL document CHEMBL1933058, “5-(2-amino-pyrimidin-4-yl)-1H-pyrrole and 2-(2-amino-pyrimidin-4-yl)-1,5,6,7-tetrahydro-pyrrolo[3,2-c]pyridin-4-one derivatives as new classes of selective and orally available Polo-like kinase 1 inhibitors” (Bioorg Med Chem Lett, 2012).
In brackets after ≈: the same amount, converted by molar mass. Blank lines part the entries; values can stand above or below the compound they belong to.

Columns and labels:
[1] = molecular target: Serine/threonine-protein kinase PLK2 (Homo sapiens, UniProt Q9NYY3); assay: Inhibition of PLK2
Sequence of Serine/threonine-protein kinase PLK2 (Q9NYY3 whole entry): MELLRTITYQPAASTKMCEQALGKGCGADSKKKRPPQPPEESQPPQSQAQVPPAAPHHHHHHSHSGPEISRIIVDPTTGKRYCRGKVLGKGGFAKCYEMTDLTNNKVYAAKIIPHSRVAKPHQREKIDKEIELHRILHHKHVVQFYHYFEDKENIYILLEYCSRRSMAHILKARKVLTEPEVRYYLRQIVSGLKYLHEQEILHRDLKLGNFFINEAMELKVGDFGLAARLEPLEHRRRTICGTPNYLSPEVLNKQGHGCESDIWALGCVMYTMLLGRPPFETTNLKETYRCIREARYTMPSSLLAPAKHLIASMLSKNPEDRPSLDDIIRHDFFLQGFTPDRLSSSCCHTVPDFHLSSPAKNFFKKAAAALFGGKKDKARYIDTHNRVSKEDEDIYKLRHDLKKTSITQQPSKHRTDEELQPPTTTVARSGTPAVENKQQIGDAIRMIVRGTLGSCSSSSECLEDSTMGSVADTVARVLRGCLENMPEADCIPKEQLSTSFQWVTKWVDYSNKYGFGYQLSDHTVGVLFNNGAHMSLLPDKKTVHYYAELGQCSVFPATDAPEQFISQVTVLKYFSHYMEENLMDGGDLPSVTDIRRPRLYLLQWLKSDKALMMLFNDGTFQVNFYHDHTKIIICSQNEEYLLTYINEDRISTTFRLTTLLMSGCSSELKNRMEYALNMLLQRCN

[2] = molecular target: Serine/threonine-protein kinase PLK3 (Homo sapiens, UniProt Q9H4B4); assay: Inhibition of PLK3
Sequence of Serine/threonine-protein kinase PLK3 (Q9H4B4 whole entry): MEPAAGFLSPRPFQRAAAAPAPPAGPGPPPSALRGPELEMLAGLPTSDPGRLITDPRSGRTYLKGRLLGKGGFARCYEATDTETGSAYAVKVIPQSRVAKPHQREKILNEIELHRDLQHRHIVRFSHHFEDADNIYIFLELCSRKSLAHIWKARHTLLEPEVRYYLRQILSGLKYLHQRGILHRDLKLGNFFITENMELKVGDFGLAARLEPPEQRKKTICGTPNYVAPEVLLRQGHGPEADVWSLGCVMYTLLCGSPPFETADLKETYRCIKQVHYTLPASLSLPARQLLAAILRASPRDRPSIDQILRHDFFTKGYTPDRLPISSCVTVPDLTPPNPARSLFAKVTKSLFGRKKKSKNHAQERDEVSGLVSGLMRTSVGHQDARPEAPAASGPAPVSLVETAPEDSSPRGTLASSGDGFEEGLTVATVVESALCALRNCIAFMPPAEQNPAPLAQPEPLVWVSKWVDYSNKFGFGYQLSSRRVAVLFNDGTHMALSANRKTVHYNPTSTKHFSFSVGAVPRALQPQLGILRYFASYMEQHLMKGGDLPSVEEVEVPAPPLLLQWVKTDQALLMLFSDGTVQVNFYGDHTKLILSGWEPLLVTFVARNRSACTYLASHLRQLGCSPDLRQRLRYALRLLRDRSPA

[3] = molecular target: Cyclin-dependent kinase 2/cyclin A (Homo sapiens, UniProt P24941); assay: Inhibition of CDK2/cyclin A; type: protein-complex assay
Aurora kinase A = molecular target: T1, Aurora kinase A (Homo sapiens, UniProt O14965); assay: Inhibition of Aurora-A
T1 sequence (O14965 whole entry): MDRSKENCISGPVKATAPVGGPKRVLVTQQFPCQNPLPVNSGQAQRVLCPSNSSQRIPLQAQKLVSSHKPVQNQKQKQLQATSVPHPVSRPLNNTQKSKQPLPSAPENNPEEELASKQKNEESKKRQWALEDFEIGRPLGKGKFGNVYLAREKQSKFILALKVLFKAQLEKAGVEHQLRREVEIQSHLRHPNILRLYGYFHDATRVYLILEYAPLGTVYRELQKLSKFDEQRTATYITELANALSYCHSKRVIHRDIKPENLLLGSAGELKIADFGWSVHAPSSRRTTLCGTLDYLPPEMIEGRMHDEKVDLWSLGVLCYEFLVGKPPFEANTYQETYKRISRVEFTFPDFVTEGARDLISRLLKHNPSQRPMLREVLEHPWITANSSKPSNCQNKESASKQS

A2780 = assay: Antiproliferative activity against human A2780 cells; type: functional, cell-based
[4] = Inhibition of CK2
[5] = molecular target: Tyrosine-protein kinase ABL1 (Homo sapiens, UniProt P00519); assay: Inhibition of c-ABL
[6] = molecular target: RAC-alpha serine/threonine-protein kinase (Homo sapiens, UniProt P31749); assay: Inhibition of AKT1
Aurora kinase B = Aurora kinase B (Homo sapiens, UniProt Q96GD4); assay: Inhibition of Aurora-B
[7] = molecular target: Protein-tyrosine kinase 6 (Homo sapiens, UniProt Q13882); assay: Inhibition of BRK
[8] = molecular target: Cell division cycle 7-related protein kinase (Homo sapiens, UniProt O00311); assay: Inhibition of CDC7
[9] = molecular target: Cyclin-dependent kinase 1/cyclin B1 (Homo sapiens, UniProt P06493); assay: Inhibition of CDK1/cyclin B; type: protein-complex assay
[10] = molecular target: Cyclin-dependent kinase 2/cyclin E1 (Homo sapiens, UniProt P24941); assay: Inhibition of CDK2/cyclin E; type: protein-complex assay
[11] = molecular target: Cyclin-dependent kinase 4/cyclin D1 (Homo sapiens, UniProt P11802); assay: Inhibition of CDK4/cyclin D1; type: protein-complex assay
[12] = molecular target: Cyclin-dependent kinase 5 activator 1 (Homo sapiens, UniProt Q15078); assay: Inhibition of CDK5/P25
[13] = molecular target: Serine/threonine-protein kinase Chk1 (Homo sapiens, UniProt O14757); assay: Inhibition of CHK1
[14] = molecular target: Epidermal growth factor receptor (Homo sapiens, UniProt P04626+P00533+Q15303+P21860); assay: Inhibition of EGFR1; type: protein assay
[15] = molecular target: Mitogen-activated protein kinase 1 (Homo sapiens, UniProt P28482); assay: Inhibition of ERK2
[16] = molecular target: Fibroblast growth factor receptor 1 (Homo sapiens, UniProt P11362); assay: Inhibition of FGFR1
[17] = molecular target: Glycogen synthase kinase-3 beta (Homo sapiens, UniProt P49841); assay: Inhibition of GSK3-beta
[18] = molecular target: Insulin-like growth factor 1 receptor (Homo sapiens, UniProt P08069); assay: Inhibition of IGFR1
Sequence of Insulin-like growth factor 1 receptor (P08069 31-736 limits assumed): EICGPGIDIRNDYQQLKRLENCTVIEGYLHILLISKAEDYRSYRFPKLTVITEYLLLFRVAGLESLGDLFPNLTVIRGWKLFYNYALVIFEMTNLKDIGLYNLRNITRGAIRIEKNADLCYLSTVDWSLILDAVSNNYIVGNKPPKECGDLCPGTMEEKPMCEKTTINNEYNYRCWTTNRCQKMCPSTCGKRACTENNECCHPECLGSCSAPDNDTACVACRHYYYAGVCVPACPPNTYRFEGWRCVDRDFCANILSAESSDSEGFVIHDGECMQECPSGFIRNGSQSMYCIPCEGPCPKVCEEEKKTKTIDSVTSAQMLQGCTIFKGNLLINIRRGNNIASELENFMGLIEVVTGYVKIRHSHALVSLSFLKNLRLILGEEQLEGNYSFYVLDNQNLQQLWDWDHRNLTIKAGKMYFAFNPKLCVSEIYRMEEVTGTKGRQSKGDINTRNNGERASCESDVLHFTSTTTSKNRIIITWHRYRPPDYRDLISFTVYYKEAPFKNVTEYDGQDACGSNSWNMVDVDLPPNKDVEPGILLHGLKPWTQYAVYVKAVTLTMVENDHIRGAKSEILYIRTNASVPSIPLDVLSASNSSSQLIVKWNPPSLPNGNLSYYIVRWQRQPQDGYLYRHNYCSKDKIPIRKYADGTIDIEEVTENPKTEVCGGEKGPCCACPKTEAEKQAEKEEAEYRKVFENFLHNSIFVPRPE
Sequence of Insulin-like growth factor 1 receptor (P08069 741-1367 limits assumed): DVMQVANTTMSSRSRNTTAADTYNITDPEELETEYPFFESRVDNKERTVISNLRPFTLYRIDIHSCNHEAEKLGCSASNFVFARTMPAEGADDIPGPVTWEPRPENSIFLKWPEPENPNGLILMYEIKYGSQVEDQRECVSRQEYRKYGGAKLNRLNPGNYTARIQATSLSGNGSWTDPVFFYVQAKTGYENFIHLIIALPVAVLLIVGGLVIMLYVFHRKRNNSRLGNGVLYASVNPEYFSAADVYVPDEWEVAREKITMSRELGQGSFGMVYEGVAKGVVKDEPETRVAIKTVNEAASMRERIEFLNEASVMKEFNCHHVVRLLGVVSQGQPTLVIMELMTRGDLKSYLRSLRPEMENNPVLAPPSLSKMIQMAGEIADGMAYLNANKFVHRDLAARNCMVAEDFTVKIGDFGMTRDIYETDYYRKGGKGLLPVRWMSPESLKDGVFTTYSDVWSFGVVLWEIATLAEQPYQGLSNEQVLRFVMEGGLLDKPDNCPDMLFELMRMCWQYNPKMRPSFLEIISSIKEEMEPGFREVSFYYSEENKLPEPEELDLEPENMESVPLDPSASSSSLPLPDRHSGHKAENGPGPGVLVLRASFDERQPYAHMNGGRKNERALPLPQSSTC

[19] = molecular target: Inhibitor of nuclear factor kappa-B kinase subunit beta (Homo sapiens, UniProt O14920); assay: Inhibition of IKK2
Insulin receptor = Insulin receptor (Homo sapiens, UniProt P06213); assay: Inhibition of IR
[20] = molecular target: Tyrosine-protein kinase JAK2 (Homo sapiens, UniProt O60674); assay: Inhibition of JAK2
[21] = molecular target: Mast/stem cell growth factor receptor Kit (Homo sapiens, UniProt P10721); assay: Inhibition of KIT
[22] = molecular target: Tyrosine-protein kinase Lck (Homo sapiens, UniProt P06239); assay: Inhibition of LCK
[23] = molecular target: MAP kinase-activated protein kinase 2 (Homo sapiens, UniProt P49137); assay: Inhibition of MAP-KAPK2
[24] = molecular target: Hepatocyte growth factor receptor (Homo sapiens, UniProt P08581); assay: Inhibition of MET
Sequence of Hepatocyte growth factor receptor (P08581 whole entry): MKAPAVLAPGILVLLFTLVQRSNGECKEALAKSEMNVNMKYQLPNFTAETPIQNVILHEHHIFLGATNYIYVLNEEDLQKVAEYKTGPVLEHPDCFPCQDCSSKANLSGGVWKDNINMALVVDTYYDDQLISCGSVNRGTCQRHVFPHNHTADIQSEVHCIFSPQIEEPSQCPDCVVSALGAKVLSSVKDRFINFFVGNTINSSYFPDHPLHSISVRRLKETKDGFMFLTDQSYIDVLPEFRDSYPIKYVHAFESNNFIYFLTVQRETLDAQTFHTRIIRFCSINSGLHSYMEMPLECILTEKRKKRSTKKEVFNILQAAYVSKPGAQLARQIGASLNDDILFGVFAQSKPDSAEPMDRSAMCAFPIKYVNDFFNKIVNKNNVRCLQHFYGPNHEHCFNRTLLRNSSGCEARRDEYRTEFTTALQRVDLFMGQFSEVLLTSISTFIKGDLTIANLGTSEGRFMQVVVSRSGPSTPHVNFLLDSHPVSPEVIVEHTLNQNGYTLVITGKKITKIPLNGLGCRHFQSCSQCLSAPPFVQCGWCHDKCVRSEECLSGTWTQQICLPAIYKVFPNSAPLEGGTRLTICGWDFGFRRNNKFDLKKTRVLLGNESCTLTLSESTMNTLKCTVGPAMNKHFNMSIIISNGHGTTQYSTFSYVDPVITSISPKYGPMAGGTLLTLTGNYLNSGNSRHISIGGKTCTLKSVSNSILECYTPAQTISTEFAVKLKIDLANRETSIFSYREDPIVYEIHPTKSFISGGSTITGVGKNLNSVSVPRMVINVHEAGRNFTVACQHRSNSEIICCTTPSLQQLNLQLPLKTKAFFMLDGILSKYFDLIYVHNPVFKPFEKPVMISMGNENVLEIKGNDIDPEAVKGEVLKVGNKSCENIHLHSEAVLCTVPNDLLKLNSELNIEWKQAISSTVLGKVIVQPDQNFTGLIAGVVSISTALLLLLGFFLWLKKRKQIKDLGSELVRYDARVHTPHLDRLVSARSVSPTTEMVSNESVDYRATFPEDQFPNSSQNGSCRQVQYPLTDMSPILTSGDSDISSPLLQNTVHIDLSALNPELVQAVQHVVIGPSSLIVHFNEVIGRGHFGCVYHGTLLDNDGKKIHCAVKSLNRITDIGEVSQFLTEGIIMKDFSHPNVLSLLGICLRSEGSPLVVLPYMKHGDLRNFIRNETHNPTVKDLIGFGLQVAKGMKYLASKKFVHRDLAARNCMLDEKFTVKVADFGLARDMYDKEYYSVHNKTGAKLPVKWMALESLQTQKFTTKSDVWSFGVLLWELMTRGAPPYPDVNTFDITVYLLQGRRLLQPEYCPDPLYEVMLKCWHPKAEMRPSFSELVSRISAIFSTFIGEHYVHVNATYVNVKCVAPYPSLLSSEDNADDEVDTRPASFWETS

[25] = molecular target: Serine/threonine-protein kinase 26 (Homo sapiens, UniProt Q9P289); assay: Inhibition of MST4
Sequence of Serine/threonine-protein kinase 26 (Q9P289 whole entry): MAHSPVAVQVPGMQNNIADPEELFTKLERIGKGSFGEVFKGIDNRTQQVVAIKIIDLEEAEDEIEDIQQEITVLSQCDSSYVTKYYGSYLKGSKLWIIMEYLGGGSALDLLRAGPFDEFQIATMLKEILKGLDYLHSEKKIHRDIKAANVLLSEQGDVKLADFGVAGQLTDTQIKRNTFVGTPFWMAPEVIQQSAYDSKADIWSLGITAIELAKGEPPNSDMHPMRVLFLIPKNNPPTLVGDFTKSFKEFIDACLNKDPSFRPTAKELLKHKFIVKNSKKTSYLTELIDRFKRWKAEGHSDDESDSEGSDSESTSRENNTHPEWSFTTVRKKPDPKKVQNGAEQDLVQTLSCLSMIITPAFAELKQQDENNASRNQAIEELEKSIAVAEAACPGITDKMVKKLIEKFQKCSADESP

[26] = molecular target: Serine/threonine-protein kinase Nek6 (Homo sapiens, UniProt Q9HC98); assay: Inhibition of NEK6
[27] = Inhibition of NIM
[28] = molecular target: Mitogen-activated protein kinase 14 (Homo sapiens, UniProt Q16539); assay: Inhibition of P38alpha
[29] = molecular target: Serine/threonine-protein kinase PAK 4 (Homo sapiens, UniProt O96013); assay: Inhibition of PAK4
[30] = Inhibition of PDGFR
[31] = molecular target: cAMP-dependent protein kinase catalytic subunit alpha (Homo sapiens, UniProt P17612); assay: Inhibition of PKAalpha
[32] = molecular target: Protein kinase C beta type (Homo sapiens, UniProt P05771); assay: Inhibition of PKCbeta
[33] = molecular target: Proto-oncogene tyrosine-protein kinase receptor Ret (Homo sapiens, UniProt P07949); assay: Inhibition of RET
[34] = Inhibition of SULU1
[35] = molecular target: High affinity nerve growth factor receptor (Homo sapiens, UniProt P04629); assay: Inhibition of TRKA
[36] = molecular target: Vascular endothelial growth factor receptor 2 (Homo sapiens, UniProt P35968); assay: Inhibition of VEGFR2
[37] = molecular target: Vascular endothelial growth factor receptor 3 (Homo sapiens, UniProt P35916); assay: Inhibition of VEGFR3
A-375 = assay: Antiproliferative activity against human A375 cells; type: functional, cell-based
HCT-116 = assay: Antiproliferative activity against human HCT116 cells; type: functional, cell-based
LNCaP = assay: Antiproliferative activity against human LNCAP cells; type: functional, cell-based
MDA-MB-468 = assay: Antiproliferative activity against human MDA-MB-468 cells; type: functional, cell-based
K562 = assay: Antiproliferative activity against human K562 cells; type: functional, cell-based
MOLM-13 = assay: Antiproliferative activity against human MOLM13 cells; type: functional, cell-based
MOLT-4 = assay: Antiproliferative activity against human MOLT4 cells; type: functional, cell-based
[38] = Antiproliferative activity against human SUP-M2 cells; type: functional, cell-based
Caco-2 = assay: Apparent permeability across human Caco2 cells; type: ADME, cell-based
[39] = Apparent permeability of the compound by PAMPA; type: ADME
[40] = Intrinsic clearance in rat hepatocytes at 1 uM; type: ADME, cell-based, Liver, Hepatocyte; details: read-out: CLH
[41] = Intrinsic clearance in human liver microsomes at 1 uM; type: ADME, Microsome; details: read-out: CLH
[42] = Solubility of the compound at pH 7; type: physicochemical; details: buffer
[43] = Tmax in Nu/Nu Balb Harlan mouse at 10 mg/kg, po; type: ADME, organism-based; parameters: dose 10 mg/kg, route oral; details: in vivo
[44] = molecular target: Serine/threonine-protein kinase PLK1 (Homo sapiens, UniProt P53350); assay: Inhibition of PLK1
Sequence of Serine/threonine-protein kinase PLK1 (P53350 whole entry): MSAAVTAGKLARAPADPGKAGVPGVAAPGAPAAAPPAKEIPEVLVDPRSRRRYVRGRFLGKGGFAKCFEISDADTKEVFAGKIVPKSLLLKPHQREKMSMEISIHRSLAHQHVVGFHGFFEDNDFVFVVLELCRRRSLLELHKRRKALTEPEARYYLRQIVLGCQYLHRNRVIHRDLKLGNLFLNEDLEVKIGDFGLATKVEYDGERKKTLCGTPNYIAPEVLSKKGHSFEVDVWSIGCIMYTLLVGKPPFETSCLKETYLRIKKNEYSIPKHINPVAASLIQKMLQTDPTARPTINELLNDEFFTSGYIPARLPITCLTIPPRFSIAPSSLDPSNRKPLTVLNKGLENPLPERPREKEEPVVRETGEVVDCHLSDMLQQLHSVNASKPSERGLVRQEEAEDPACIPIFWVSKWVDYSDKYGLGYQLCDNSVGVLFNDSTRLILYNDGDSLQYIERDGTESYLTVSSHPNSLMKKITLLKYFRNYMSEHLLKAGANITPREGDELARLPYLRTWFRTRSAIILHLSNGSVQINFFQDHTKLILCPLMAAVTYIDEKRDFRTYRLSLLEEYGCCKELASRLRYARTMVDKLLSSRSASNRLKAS

Compound: CN1CCN(c2ccc(OC(F)(F)F)c(Nc3nccc(-c4cc5c(n4C)CCN(C(=O)OC(C)(C)C)C5=O)n3)c2)CC1
- IC50 [44]: 0.817 µM
- IC50 [1]: > 10 µM
- IC50 [2]: > 10 µM
- IC50 [3]: > 10 µM
- IC50 (Aurora kinase A): > 10 µM
- IC50 (A2780): 0.176 µM

Compound: CN1CCN(c2ccc(OC(F)(F)F)c(Nc3nccc(-c4cc(C(N)=O)cn4CCO)n3)c2)CC1
- IC50 [44]: 0.151 µM
- IC50 [1]: > 10 µM
- IC50 [2]: > 10 µM
- IC50 [3]: > 10 µM
- IC50 (Aurora kinase A): > 10 µM
- IC50 (A2780): 2.53 µM

Compound: NC(=O)c1c[nH]c(-c2ccnc(N)n2)c1
- IC50 [44]: > 10 µM
- IC50 [3]: > 10 µM
- IC50 (Aurora kinase A): > 10 µM

Further lines, with some results ahead:

- IC50 [1]: > 10 µM
- IC50 [2]: > 10 µM
- IC50 [3]: > 10 µM
- IC50 (Aurora kinase A): > 10 µM
- IC50 (A2780): 0.36 µM
- IC50 [4]: 0.951 µM
- IC50 [5]: > 10 µM
- IC50 [6]: > 10 µM
- IC50 (Aurora kinase B): > 10 µM
- IC50 [7]: > 10 µM
- IC50 [8]: > 10 µM
- IC50 [9]: > 10 µM
- IC50 [10]: > 10 µM
- IC50 [11]: > 10 µM
- IC50 [12]: > 10 µM
- IC50 [13]: > 10 µM
- IC50 [14]: > 10 µM
- IC50 [15]: > 10 µM
- IC50 [16]: > 10 µM
- IC50 [17]: > 10 µM
- IC50 [18]: > 10 µM
- IC50 [19]: > 10 µM
- IC50 (Insulin receptor): > 10 µM
- IC50 [20]: > 10 µM
- IC50 [21]: > 10 µM
- IC50 [22]: > 10 µM
- IC50 [23]: > 10 µM
- IC50 [24]: > 10 µM
- IC50 [25]: > 10 µM
- IC50 [26]: > 10 µM
- IC50 [27]: > 10 µM
- IC50 [28]: > 10 µM
- IC50 [29]: > 10 µM
- IC50 [30]: > 10 µM
- IC50 [31]: > 10 µM
- IC50 [32]: > 10 µM
- IC50 [33]: > 10 µM
- IC50 [34]: > 10 µM
- IC50 [35]: > 10 µM
- IC50 [36]: > 10 µM
- IC50 [37]: > 10 µM
- IC50 (A-375): 0.386 µM
- IC50 (HCT-116): 0.52 µM
- IC50 (LNCaP): 0.28 µM
- IC50 (MDA-MB-468): 0.624 µM
- IC50 (K562): 0.59 µM
- IC50 (MOLM-13): 0.201 µM
- IC50 (MOLT-4): 0.253 µM
- Papp (Caco-2): permeable
- Papp [39]: 50 ×10⁻⁶ cm/s
- CLint scaled at 1 µM [40]: 408 mL/min/kg
- CLint scaled at 1 µM [41]: 14.9 mL/min/kg
- solubility [42]: 174 µM (≈ 82.7 µg/mL)
- Tmax [43]: 30 min
Compound: CN1CCN(c2ccc(OC(F)(F)F)c(Nc3nccc(-c4cc(C(N)=O)cn4C)n3)c2)CC1
- IC50 [38]: 0.647 µM

- IC50 [44]: 0.272 µM
- IC50 [1]: > 10 µM
- IC50 [2]: > 10 µM
- IC50 [3]: > 10 µM
- IC50 (Aurora kinase A): > 10 µM
- IC50 (A2780): 6.69 µM
Compound: CN1CCN(c2ccc(OC(F)(F)F)c(Nc3nccc(-c4cc(C(N)=O)cn4CCOC4CCCCO4)n3)c2)CC1 (configuration not stated)

- IC50 [44]: 0.102 µM
- IC50 [1]: > 10 µM
- IC50 [2]: > 10 µM
- IC50 [3]: > 10 µM
- IC50 (Aurora kinase A): > 10 µM
- IC50 (A2780): 0.722 µM
Compound: CN1CCN(c2ccc(OC(F)(F)F)c(Nc3nccc(-c4cc5c(n4CCO)CCNC5=O)n3)c2)CC1
